These results are taken from ChEMBL document CHEMBL3132769, “Fragment growing to retain or alter the selectivity of anchored kinase hinge-binding fragments” (Medchemcomm, 2014).

Molecules are shown by their SMILES.

The target of assay [1] is Tyrosine-protein kinase Fer (Homo sapiens) (UniProt P16591). As to the kind of experiment: Inhibition of human FER catalytic domain expressed in baculovirus assessed as substrate phosphorylation using fluorescence-labelled peptides as substrate at 0.2 uM after 90 mins by microfluidic peptide phosphorylation assay.
Tyrosine-protein kinase Fer (Homo sapiens), sequence (P16591 whole entry, looked up, the tested form may be a part): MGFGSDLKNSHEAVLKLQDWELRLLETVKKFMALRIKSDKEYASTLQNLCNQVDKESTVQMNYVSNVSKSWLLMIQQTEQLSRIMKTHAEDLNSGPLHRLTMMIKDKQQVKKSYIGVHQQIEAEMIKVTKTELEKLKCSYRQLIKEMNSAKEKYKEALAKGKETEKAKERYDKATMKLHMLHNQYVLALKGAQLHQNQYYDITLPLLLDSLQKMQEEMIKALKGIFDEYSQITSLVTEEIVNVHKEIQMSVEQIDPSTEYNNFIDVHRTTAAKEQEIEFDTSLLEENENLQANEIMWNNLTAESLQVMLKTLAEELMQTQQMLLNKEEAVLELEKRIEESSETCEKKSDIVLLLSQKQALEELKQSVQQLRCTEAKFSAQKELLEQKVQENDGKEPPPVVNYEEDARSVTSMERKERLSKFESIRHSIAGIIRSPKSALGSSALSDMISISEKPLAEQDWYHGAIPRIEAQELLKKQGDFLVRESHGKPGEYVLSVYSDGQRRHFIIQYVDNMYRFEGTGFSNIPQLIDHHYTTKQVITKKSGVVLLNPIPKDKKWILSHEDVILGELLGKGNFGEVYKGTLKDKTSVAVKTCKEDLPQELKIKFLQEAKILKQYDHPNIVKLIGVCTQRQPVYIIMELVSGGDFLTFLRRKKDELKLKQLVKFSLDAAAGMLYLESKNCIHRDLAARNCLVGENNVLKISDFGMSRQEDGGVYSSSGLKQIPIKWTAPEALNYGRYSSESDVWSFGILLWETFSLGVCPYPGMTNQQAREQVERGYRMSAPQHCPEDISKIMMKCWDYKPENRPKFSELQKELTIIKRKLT
The target of assay [2] is T1, Serine/threonine-protein kinase D3 (Homo sapiens) (UniProt O94806).
T1 sequence (whole entry): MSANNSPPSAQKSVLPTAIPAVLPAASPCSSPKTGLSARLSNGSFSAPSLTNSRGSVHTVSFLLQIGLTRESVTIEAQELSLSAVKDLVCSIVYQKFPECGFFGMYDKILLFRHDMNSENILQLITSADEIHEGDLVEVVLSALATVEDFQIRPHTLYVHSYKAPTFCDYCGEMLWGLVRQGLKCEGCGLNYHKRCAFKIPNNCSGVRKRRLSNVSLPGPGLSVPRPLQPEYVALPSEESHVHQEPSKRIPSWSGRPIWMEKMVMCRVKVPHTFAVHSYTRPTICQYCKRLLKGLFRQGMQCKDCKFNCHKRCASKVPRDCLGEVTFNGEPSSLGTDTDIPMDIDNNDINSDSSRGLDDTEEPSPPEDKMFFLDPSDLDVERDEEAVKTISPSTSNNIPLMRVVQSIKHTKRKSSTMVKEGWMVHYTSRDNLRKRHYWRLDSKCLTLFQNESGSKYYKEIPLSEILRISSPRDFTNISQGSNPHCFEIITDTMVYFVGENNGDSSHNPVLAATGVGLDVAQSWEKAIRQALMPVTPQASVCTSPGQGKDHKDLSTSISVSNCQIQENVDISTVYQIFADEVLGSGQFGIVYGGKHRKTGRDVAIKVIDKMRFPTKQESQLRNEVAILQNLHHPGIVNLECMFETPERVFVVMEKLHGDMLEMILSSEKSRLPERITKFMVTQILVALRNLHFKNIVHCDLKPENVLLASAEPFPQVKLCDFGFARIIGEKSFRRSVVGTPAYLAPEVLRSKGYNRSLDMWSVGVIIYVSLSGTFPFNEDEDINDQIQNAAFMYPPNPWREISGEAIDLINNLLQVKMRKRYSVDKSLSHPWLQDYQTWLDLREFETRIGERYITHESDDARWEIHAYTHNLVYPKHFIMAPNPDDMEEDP
The following applies: 0.1 uM.
Description: Inhibition of human full length PKD3 expressed in baculovirus assessed as substrate phosphorylation using fluorescence-labelled peptides as substrate at 0.1 uM after 90 mins by microfluidic peptide phosphorylation assay

For assay [3], the target named is T1, Serine/threonine-protein kinase D3 (Homo sapiens). Kind of assay: Inhibition of human full length PKD3 expressed in baculovirus assessed as substrate phosphorylation using fluorescence-labelled peptides as substrate at 420 uM after 90 mins by microfluidic peptide phosphorylation assay.
The target of assay [4] is Mitogen-activated protein kinase 14 (Homo sapiens) (UniProt Q16539). As to the kind of experiment: Inhibition of human truncated p38 alpha expressed in Escherichia coli cell assessed as substrate phosphorylation using fluorescence-labelled peptides as substrate at 9 uM after 90 mins by microfluidic peptide phosphorylation assay.
Mitogen-activated protein kinase 14 (Homo sapiens), sequence (Q16539 whole entry, the tested form may be a part): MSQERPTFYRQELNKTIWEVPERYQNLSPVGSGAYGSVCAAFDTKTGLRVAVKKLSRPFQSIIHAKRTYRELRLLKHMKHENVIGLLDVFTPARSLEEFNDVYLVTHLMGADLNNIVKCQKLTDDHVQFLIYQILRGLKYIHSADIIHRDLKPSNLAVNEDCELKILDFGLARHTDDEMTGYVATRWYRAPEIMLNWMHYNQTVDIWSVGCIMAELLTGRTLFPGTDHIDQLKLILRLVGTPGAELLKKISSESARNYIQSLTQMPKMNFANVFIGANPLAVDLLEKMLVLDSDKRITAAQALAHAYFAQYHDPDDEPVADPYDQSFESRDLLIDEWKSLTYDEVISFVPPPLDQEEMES
Assay [5] concerns the target T2, cGMP-dependent protein kinase 1 (Homo sapiens) (UniProt Q13976).
T2 sequence (whole entry): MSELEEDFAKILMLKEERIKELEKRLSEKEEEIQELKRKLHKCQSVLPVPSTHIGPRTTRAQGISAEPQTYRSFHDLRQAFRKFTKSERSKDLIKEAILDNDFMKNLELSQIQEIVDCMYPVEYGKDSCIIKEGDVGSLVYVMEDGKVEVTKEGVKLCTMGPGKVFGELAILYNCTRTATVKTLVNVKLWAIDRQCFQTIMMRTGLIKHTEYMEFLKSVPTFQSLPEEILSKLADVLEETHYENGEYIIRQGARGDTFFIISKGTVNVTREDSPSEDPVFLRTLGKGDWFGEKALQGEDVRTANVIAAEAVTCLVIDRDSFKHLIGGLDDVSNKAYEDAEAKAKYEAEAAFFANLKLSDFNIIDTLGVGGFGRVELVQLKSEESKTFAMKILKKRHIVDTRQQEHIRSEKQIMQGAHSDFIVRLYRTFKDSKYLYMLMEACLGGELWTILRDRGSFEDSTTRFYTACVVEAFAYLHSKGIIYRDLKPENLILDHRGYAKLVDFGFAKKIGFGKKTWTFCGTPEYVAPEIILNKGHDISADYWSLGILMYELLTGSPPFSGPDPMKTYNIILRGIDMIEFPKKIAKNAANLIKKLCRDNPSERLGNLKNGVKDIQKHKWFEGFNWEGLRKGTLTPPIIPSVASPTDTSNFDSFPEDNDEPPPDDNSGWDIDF
As to the kind of experiment: Inhibition of human full length PKG-1a expressed in baculovirus assessed as substrate phosphorylation using fluorescence-labelled peptides as substrate at 1000 uM after 90 mins by microfluidic peptide phosphorylation assay.

Assay [6] concerns Fibroblast growth factor receptor 2 (Homo sapiens), P21802 [N549H]. As to the kind of experiment: Inhibition of human FGFR2 N549H mutant catalytic domain expressed in baculovirus assessed as substrate phosphorylation using fluorescence-labelled peptides as substrate at 1000 uM after 90 mins by microfluidic peptide phosphorylation assay.
Fibroblast growth factor receptor 2 (Homo sapiens), P21802 [N549H], sequence (P21802 whole entry N549H, the tested form may be a part): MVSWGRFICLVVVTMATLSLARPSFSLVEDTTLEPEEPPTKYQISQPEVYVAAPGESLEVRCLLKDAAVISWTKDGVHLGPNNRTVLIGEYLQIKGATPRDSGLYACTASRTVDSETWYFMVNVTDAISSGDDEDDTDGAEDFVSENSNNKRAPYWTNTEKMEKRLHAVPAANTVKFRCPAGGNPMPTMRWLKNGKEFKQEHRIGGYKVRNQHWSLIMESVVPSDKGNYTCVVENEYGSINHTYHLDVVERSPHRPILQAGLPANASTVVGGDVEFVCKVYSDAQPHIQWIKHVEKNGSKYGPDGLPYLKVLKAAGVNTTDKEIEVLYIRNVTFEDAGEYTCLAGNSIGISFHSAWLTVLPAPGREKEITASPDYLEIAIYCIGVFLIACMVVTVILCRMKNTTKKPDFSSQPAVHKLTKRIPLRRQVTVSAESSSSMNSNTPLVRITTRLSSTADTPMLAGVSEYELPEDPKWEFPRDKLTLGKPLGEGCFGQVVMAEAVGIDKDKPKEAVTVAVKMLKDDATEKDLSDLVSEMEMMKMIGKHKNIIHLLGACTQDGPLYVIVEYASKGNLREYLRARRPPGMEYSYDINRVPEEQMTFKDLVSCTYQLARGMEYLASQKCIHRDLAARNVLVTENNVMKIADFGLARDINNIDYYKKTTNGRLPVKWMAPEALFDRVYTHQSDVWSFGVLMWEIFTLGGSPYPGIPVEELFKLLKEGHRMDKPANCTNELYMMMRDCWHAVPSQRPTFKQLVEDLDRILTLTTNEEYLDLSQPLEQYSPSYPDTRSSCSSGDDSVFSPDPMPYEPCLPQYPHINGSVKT
Assay [7] addresses Serine/threonine-protein kinase pim-1 (Homo sapiens) (UniProt P11309). As to the kind of experiment: Inhibition of human full length PIM1 expressed in baculovirus assessed as substrate phosphorylation using fluorescence-labelled peptides as substrate at 1000 uM after 90 mins by microfluidic peptide phosphorylation assay.
Assay [8] concerns the target T3, Serine/threonine-protein kinase Sgk3 (Homo sapiens) (UniProt Q96BR1).
T3 sequence (whole entry): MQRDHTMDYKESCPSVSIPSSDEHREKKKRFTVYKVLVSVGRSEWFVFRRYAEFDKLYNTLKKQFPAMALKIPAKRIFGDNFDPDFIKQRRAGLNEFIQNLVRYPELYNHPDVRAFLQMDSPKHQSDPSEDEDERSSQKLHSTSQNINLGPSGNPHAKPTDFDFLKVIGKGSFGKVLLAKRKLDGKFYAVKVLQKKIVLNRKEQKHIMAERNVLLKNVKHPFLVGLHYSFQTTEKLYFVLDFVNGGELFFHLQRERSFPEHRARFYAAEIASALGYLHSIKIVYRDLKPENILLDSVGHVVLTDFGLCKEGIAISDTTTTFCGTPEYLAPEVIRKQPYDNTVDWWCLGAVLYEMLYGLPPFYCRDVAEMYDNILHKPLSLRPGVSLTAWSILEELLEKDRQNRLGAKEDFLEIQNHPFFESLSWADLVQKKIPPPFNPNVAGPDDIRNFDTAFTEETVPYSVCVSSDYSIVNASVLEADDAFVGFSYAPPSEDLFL
Kind of assay: Inhibition of human full length SGK3 expressed in baculovirus assessed as substrate phosphorylation using fluorescence-labelled peptides as substrate at 2 uM after 90 mins by microfluidic peptide phosphorylation assay.

Assay [9] addresses Calcium/calmodulin-dependent protein kinase type II subunit delta (Homo sapiens) (UniProt Q13557). Kind of assay: Inhibition of human full length CAMK2D expressed in baculovirus assessed as substrate phosphorylation using fluorescence-labelled peptides as substrate at 70 uM after 90 mins by microfluidic peptide phosphorylation assay.
The target of assay [10] is Protein kinase C beta type (Homo sapiens) (UniProt P05771). Kind of assay: Inhibition of human full length PKC beta2 expressed in baculovirus assessed as substrate phosphorylation using fluorescence-labelled peptides as substrate at 70 uM after 90 mins by microfluidic peptide phosphorylation assay.
Protein kinase C beta type (Homo sapiens), sequence (P05771 2-671 limits assumed): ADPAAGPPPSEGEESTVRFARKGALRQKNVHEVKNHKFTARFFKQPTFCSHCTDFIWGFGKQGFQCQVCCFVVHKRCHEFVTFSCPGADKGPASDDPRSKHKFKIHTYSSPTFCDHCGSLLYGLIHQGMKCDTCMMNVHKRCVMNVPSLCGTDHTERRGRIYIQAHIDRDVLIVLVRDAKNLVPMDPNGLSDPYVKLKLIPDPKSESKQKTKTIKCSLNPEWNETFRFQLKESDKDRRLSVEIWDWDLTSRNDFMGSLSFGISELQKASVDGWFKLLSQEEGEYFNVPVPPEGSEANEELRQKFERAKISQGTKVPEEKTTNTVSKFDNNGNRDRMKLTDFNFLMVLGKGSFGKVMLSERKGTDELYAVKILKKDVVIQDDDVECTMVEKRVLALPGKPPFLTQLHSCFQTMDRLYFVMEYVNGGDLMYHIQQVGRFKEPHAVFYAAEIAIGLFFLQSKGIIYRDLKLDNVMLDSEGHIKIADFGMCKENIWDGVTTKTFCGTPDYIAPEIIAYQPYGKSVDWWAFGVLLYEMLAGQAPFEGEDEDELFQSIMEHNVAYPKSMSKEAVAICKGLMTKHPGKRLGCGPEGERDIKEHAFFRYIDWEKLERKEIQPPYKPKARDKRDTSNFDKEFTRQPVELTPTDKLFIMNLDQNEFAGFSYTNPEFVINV

Calcium/calmodulin-dependent protein kinase type II subunit delta (Homo sapiens), sequence (Q13557 whole entry): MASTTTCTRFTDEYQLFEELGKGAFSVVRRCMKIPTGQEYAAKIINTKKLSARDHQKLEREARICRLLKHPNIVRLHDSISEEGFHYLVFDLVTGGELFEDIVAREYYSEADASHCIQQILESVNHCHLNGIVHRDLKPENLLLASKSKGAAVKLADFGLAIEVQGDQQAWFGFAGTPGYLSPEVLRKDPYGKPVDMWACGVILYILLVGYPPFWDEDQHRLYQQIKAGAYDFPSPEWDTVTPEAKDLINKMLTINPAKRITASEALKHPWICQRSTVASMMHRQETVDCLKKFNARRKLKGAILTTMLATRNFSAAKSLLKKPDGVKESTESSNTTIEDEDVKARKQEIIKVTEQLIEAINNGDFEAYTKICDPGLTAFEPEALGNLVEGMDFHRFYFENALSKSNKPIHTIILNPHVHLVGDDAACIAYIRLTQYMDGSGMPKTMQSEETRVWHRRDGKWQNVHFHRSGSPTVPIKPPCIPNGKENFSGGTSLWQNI
Serine/threonine-protein kinase pim-1 (Homo sapiens), sequence (P11309 whole entry, looked up): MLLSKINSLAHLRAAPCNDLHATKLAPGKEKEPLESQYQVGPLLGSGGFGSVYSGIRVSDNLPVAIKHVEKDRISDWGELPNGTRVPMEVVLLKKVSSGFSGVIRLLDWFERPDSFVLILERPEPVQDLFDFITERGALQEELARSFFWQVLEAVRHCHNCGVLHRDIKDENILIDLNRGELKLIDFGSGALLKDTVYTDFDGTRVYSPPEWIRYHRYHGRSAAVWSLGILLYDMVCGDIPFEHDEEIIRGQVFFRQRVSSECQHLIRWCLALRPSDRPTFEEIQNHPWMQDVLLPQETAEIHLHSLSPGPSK

As a reminder, the inhibition is the percentage by which the read-out fell short of the control. For the compound `Clc1ccc(C2(c3ccc(-c4ncnc5[nH]cnc45)cc3)CCNCC2)cc1`, the inhibition in [1] turned out to be 2.5%.

As to `C[C@H](CN(C)C)Oc1nc(Nc2cc3cccc(Cl)c3cn2)cnc1C#N`, the inhibition in assay [2] is 0%.

For the compound `c1nc(N2CCOCC2)c2nc[nH]c2n1`, in [3], the inhibition was 85%.

On to `NCC1CN(c2ncnc3[nH]c4cnccc4c23)CCO1` (stereo not given), for which the inhibition in assay [4] is 2.5%.

Consider `c1cnc2[nH]ccc2c1`, for which the inhibition in assay [5] amounted to 90.5%; in [6], 42%; in [7], 20%.

Take `NC1CCN(c2ncnc3[nH]ccc23)CC1`: in [8], the inhibition amounted to 34.5%.

Take `CNCc1ccc(-c2ncnc3[nH]cnc23)cc1`: the results for the inhibition in assay [9] and in assay [10] were 17.5% and 0%, respectively.
